For experiment [1], the target named is T1, FGFR4 (Homo sapiens, UniProt P22455). Kind of experiment: FGFR4 Kinase Assay - Caliper. The format is biochemical. To be noted: 30 μM ATP, separate test occasions listed, read-out: IC50 (inhibition of FGFR4 kinase activity). The protocol: FGFR4 Kinase Assay—Caliper
To determine inhibition of FGFR4 activity, kinase assays were conducted using Caliper technology. FGFR4 enzyme was used (8 μM, Cat. No. PR4380B, Invitrogen). Kinase activity assays were performed in Greiner 384-well low volume plates, with a total reaction volume of 12 μL per well. The final concentration of FGFR4 active kinase in each reaction well was 25 nM. The substrate for each assay was a custom peptide with fluorescent tag (13 amino acids in length, 5FAM-[…]—CONH2) the sequence of which was specific for FGFR4 kinase.
Compounds were serially diluted in 5% (v/v) DMSO, before being added to assay plates. The Enzyme (at 25 nM (final)) and Substrate (at 1.5 μM (final)) were added separately to the compound plates, in reaction buffer (comprising: 100 mM HEPES—pH 7.5, 0.004% Triton, 1 mM DTT (final), 10 mM MnCl2 (final), 30 μM ATP (final)) resulting in a final DMSO concentration in the reaction mix of 0.8%.
Assay plates were incubated at RT for 2 hours, before the reaction was stopped with the addition of buffer (comprising: 100 mM HEPES—pH7.5, 0.033% Brij-35, 0.22% Caliper Coating Reagent #3, 40 mM EDTA, 5% DMSO). Stopped assay plates were then read using the Caliper LabChip™ LC3000 (which uses microfludics to measure a shift in mobility between fluorescent labelled peptide and the FGFR4 kinase—phosphorylated form of this peptide). […]

Experiment [2] concerns the target T1, FGFR4. Kind of experiment: Cell FGFR4 (ECHO) Assay: inhibition of transiently expressed FGFR4 phosphorylation in Cos-1 cells. The class given is cell-based. More on the design: expressed in transfected cells; host or cells: Cos-1. To be noted: Cos-1 cells transiently expressing FGFR4, 1 hour incubation; read-out: IC50 (inhibition of phosphorylated FGFR4). The text has this: Cell based inhibition of transiently expressed FGFR4 phosphorylation via use of ECHO technology (measured using phospho-specific primary and fluorescent secondary antibodies).
This assay is designed to detect inhibitors of transiently expressed FGFR4 phosphorylation by antibody staining of fixed cells detected using ArrayScan technology. Cos-1 cells were routinely passaged in DMEM (Gibco BRL, 41966) plus 3% foetal calf serum (FCS), 1% L-glutamine (Gibco BRL, 25030) to a confluence of 80%. To undertake the assay, Cos-1 cells were harvested at 90-95% confluence for cell transfection. For each 96-well plate, 24 μL Lipofectamine 2000 was added to 809 μL OptiMEM and incubated at room temperature for 5 minutes. For each 96 well plate, 20 μg 3′ FLAG tagged FGFR4/pcDNA3.1 (MSD 6273) was diluted with OptiMEM to a total volume of 833 μL. Equal volumes of DNA and Lipofectamine 2000 were combined (DNA:Lipid=1:1.2 ratio) and incubated at room temperature for 20 minutes.
The harvested Cos-1 cells are counted using a coulter counter and diluted further with 1% FCS/DMEM to 1.2×10^5 cells/mL. For each 96-well, 8.33 mL cells were required. […]
Media was removed from the wells using vacuum aspiration; cells were fixed by adding 50 μL of 100% methanol to each well and incubated at room temperature for 20 minutes. […] The plates were read on an Arrayscan (Cellomics). […]

Several values for one entry are separate records, joined by “and”; a condition that tells them apart may be missing. Identical values can stand only once.

T1 sequence (P22455 22-802): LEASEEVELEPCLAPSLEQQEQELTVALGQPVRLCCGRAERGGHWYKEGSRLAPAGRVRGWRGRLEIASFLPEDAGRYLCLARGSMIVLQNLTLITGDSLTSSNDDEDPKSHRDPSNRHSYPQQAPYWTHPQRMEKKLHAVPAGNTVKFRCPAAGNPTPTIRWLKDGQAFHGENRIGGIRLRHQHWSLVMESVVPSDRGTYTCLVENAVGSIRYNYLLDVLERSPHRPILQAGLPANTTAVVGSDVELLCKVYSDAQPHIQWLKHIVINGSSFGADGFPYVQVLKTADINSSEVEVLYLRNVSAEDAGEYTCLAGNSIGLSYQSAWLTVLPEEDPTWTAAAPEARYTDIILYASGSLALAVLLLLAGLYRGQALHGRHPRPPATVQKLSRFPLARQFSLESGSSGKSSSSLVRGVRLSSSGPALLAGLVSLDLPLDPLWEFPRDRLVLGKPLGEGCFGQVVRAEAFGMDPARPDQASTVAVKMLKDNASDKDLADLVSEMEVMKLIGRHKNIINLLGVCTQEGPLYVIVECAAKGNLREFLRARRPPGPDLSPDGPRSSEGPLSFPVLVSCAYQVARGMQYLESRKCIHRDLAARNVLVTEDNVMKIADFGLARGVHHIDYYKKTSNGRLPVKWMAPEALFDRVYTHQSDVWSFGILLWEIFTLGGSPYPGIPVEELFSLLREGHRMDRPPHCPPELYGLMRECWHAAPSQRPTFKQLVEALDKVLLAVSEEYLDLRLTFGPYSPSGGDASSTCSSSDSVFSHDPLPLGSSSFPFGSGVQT

As to `COc1cc(CCc2cc(NC(=O)c3ccc(N4CCN(C)[C@H](C)C4)cc3)[nH]n2)cc(OC)c1` [Example 1b, (R)—N-(3-(3,5-Dimethoxyphenethyl)-1H-pyrazol-5-yl)-4-(3,4-dimethylpiperazin-1-yl)benzamide], the IC50 at FGFR4 [1] is 22 nM and 16 nM (2×); at FGFR4 [2], 29 nM and 33 nM and 45 nM and 28 nM.

The term IC50 denotes the point on the concentration scale where inhibition reaches its midpoint.

(Values after patent US20090318468A1, “PYRAZOLE COMPOUNDS 436” (AstraZeneca AB, priority 2008, published 2009).)
